Assay results published in publication PMC12439166, “Dietary flavonoids form supramolecular assemblies, alter biochemistry, and enhance cell resilience” (Frontiers in Nutrition, 2025).
Entries after “also recorded” stand apart in the source; their conditions may differ.

Assays:
human dermal fibroblasts = experiment: Protection of fibroblasts against ultraviolet radiation, cell viability by CellTiter-Glo; format: cell-based; conditions: 1 h pretreatment, 254 nm UV 20 mJ/cm^2, viability 24 h post-irradiation; result in words
Protocol: Human fibroblasts were obtained from Cell Applications Inc (Cat. # 106-05a) and were maintained in Dulbecco’s Modified Eagle medium (DMEM, Corning, Cat. #10-013-CV) with 10% fetal bovine serum (Gibco, Cat. #10082147) and 1% penicillin/streptomycin (Gibco, Cat. # 15070-063) in a humidified incubator with 5% CO2 at 37 °C. For ultraviolet radiation, fibroblasts were seeded in a 96-well plate at a density of 25,000 cells/well and maintained at 37 °C for 24 h. Cells were washed once with Hanks’ balanced salt solution (HBSS, Gibco, Cat. #14025-092), then treated for 1 h with different concentrations of compounds prepared in HBSS. Vitamin C (Sigma, Cat. # A5960) served as a positive control. Treated cells were exposed to ultraviolet light (UVP cross-linker, CL1000, 254 nm UV, 8 watts) at a total dose of 20 mJ/cm^2. Following irradiation, the HBSS was replaced with culture medium containing the same concentration of compounds as before irradiation, and cells were again maintained at 37 °C. Cell viability was measured at 24 h post-irradiation using CellTiter-Glo according to the manufacturer’s instructions (Promega, Cat.# G7571). Results were expressed as relative cell viability (%) with respect to control cells (cells without ultraviolet irradiation or compound treatment).

Arginase 1 (ARG1) = biological target: T1, Arginase 1 (ARG1) (Homo sapiens, UniProt P05089); experiment: Enzyme activity assay (SAMDI-MS), Arginase 1; format: biochemical; conditions: 10 concentrations, 5 nM to 100 μM, compounds incubated with enzyme 30 min, result in words
T1 sequence (P05089 1-322): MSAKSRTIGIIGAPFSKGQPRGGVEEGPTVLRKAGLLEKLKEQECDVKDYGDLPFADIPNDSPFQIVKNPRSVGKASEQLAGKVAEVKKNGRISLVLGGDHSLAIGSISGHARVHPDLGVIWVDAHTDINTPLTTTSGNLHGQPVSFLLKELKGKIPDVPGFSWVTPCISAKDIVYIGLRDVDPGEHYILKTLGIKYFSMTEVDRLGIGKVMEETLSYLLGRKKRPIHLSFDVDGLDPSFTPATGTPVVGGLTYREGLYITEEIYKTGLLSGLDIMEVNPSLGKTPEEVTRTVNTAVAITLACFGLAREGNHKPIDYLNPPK
Protocol: Enzyme screens were performed by SAMDI Tech (contract research organization); enzyme assays were performed in a 20 μL volume in 384-well low-volume polypropylene microtiter plates (Greiner Bio-One) at room temperature. The enzymes [Arginase 1 (ARG1), Lysine demethylase 4C (KDM4C), MAP/microtubule affinity-regulating kinase 4 (MARK4), Histone-Lysine N-methyltransferase (NSD2), Tyrosine-protein phosphatase non-receptor type 1 (PTP1B), and Sirtuin-3 (SIRT3)] were incubated with compounds for 30 min prior to initiation of the reaction by the addition of substrate and cofactors (if required). […] SAMDI MS was performed using reflector positive mode on an AB Sciex TOF-TOF 5800 System (AB Sciex, Framingham, MA) with 400 shots/spot analyzed in a random raster sampling. For data analysis, the area under the curves (AUCs) for the product peak and substrate peak were calculated using the TOF/TOF Series Explorer (AB Sciex), and the amount of product formed was calculated using the equation AUC product / (AUC product + AUC Substrate). […]
IC50 values of enzyme inhibition. Inhibition of the enzymes was measured at 10 concentration values in the range of 5 nM to 100 μM for each compound and enzyme, with two technical replicates; the percent inhibition values were determined by SAMDI software. […]

[1] = biological target: T2, MAP/microtubule affinity-regulating kinase 4 (MARK4) (Homo sapiens, UniProt Q96L34); experiment: Enzyme activity assay (SAMDI-MS), MARK4; format: biochemical; conditions: 10 concentrations, 5 nM to 100 μM, compounds incubated with enzyme 30 min, result in words
T2 sequence (Q96L34 1-752): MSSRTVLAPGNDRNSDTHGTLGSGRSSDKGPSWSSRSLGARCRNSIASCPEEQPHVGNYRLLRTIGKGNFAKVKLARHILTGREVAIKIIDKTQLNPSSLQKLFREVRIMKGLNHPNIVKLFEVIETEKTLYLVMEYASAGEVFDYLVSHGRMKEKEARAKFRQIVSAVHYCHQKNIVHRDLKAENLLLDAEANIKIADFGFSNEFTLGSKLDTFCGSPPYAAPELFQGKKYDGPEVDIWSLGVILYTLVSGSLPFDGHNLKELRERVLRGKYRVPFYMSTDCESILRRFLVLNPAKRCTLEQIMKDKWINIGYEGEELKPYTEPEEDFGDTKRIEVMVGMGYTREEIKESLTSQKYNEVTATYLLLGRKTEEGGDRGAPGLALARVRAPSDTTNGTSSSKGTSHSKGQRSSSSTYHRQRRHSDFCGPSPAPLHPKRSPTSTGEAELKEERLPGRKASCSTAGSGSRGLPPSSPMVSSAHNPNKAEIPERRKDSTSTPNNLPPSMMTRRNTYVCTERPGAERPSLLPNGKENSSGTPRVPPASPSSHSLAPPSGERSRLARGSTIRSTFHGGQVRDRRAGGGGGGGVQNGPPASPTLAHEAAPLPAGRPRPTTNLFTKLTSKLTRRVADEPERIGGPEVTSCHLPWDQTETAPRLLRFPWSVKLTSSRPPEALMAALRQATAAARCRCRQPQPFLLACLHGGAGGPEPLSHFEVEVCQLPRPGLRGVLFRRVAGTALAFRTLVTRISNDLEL
Protocol: Enzyme screens were performed by SAMDI Tech (contract research organization); enzyme assays were performed in a 20 μL volume in 384-well low-volume polypropylene microtiter plates (Greiner Bio-One) at room temperature. The enzymes [Arginase 1 (ARG1), Lysine demethylase 4C (KDM4C), MAP/microtubule affinity-regulating kinase 4 (MARK4), Histone-Lysine N-methyltransferase (NSD2), Tyrosine-protein phosphatase non-receptor type 1 (PTP1B), and Sirtuin-3 (SIRT3)] were incubated with compounds for 30 min prior to initiation of the reaction by the addition of substrate and cofactors (if required). Reactions were quenched by the addition of 0.5% formic acid (final) with subsequent neutralization using 1% sodium bicarbonate (final). For SAMDI MS analysis, 2 μL of each reaction was transferred using a 384-channel automated liquid handler to SAMDI biochip arrays functionalized with a neutravidin-presenting self-assembled monolayer. The preparation of SAMDI biochip arrays has been previously described ([41], [42], [49]). The SAMDI arrays were incubated for 1 h in a humidified chamber to allow specific immobilization of the biotinylated substrates and products; they were then purified by washing with ultrafiltered water (50 μL/spot) and dried with compressed air. A matrix comprising α-Cyano-4-hydroxycinnamic acid in 80% acetonitrile: 20% aqueous ammonium citrate (10 mg/mL final) was applied in an automated format by dispensing 50 nL to each spot in the array. SAMDI MS was performed using reflector positive mode on an AB Sciex TOF-TOF 5800 System (AB Sciex, Framingham, MA) with 400 shots/spot analyzed in a random raster sampling. For data analysis, the area under the curves (AUCs) for the product peak and substrate peak were calculated using the TOF/TOF Series Explorer (AB Sciex), and the amount of product formed was calculated using the equation AUC product / (AUC product + AUC Substrate). Negative controls were pre-quenched with 0.5% formic acid (final). Lysozyme assay was performed using the manufacturer’s instructions (Biovision Lysozyme inhibitor screening kit K237). Flavonoids were acquired from Sigma-Aldrich and Seleckchem.
IC50 values of enzyme inhibition. Inhibition of the enzymes was measured at 10 concentration values in the range of 5 nM to 100 μM for each compound and enzyme, with two technical replicates; the percent inhibition values were determined by SAMDI software. Sigmoidal curves were fitted to the percent inhibition vs log10 (concentration) series, and IC50 values were determined at the crossing point of 50 % inhibition. […] First, for each IC50 value per compound and enzyme, a Z-score was calculated based on the log10 (IC50) value and that of the compounds that produced a successful readout for enzyme i , according to Equation 1: […]

Row | Compound | protection against the loss of cell viability caused by UV radiation (human dermal fibroblasts) | inhibition of enzyme activity, ARG1 (Arginase 1 (ARG1); listed as Quercetin) | inhibition of enzyme activity, ARG1 (Arginase 1 (ARG1); listed as Quercitin) | inhibition of enzyme activity, MARK4 ([1]; listed as Quercetin) | inhibition of enzyme activity, MARK4 ([1]; listed as Quercitin) | inhibition of enzyme activity, MARK4 [1]
1 | O=c1c(O)c(-c2ccc(O)c(O)c2)oc2cc(O)cc(O)c12 [quercetin] | concentration-dependent protection | inhibited | concentration-dependent inhibition | inhibited | concentration-dependent inhibition | 
2 | O=c1c(O[C@@H]2O[C@H](CO)[C@@H](O)[C@H](O)[C@H]2O)c(-c2ccc(O)c(O)c2)oc2cc(O)cc(O)c12 [isoquercitrin] | concentration-dependent protection |  |  |  |  | inhibited
3 | C[C@@H]1O[C@@H](Oc2c(-c3ccc(O)c(O)c3)oc3cc(O)cc(O)c3c2=O)[C@H](O)[C@H](O)[C@H]1O [quercitrin] | concentration-dependent protection |  |  |  |  | did not affect; also recorded: did not inhibit
